Measurements as given in US8883782B2, “Spiro-tetracyclic ring compounds as beta-secretase modulators and methods of use” (Amgen Inc., priority 2010, dated 2014).
Where two headings read alike, the source gives them in different places.

Tests used:
[1] = target: Beta Secretase enzyme (BACE) (Homo sapiens, UniProt P56817); assay: In vitro enzymatic BACE FRET (fluorescence resonance energy transfer) assay; type: biochemical
How it was run: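 Run in 0.05 M acetate pH 4.2 with 10% DMSO final and 100 uM genapol; started by adding 50 nM FRET peptide substrate (fluorophore and quencher flanking the cleavage site), incubated one hour, then stopped with Tris to neutral pH before reading fluorescence.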

[2] = test system: Aβ40 in conditioned medium of cells stably expressing Amyloid Precursor Protein (APP); assay: In vitro BACE cell-based assay (Aβ40 in conditioned medium, sandwich ELISA)
How it was run: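 The sandwich ELISA pairs pAb40 capture (3 h, 4 °C) with 6E10 detection (2 h, 4 °C) and a streptavidin-europium TRF read-out. Supernatants come from APP-expressing cells grown in 10% FBS DMEM.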

[3] = average IC50, enzyme assay, read-out: BACE 1 FRET assay
[4] = Homo sapiens, HEK293, average IC50, read-out: HEK cell assay
[5] = Homo sapiens, HEK293, average IC50, HEK cells, read-out: HEK cell assay

Beta Secretase enzyme (BACE), sequence (P56817 46-501, species assumed): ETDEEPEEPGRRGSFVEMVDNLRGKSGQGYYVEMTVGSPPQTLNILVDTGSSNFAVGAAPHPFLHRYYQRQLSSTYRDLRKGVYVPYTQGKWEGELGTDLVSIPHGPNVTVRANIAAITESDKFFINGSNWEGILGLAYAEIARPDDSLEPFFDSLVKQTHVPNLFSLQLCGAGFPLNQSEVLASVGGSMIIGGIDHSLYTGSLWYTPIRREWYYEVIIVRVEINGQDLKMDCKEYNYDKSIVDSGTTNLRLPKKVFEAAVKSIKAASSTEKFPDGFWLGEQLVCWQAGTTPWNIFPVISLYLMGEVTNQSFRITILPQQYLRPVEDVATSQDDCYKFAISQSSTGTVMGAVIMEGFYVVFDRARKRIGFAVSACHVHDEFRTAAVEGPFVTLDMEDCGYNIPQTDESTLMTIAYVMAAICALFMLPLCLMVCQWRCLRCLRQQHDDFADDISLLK

| Compound | IC50 [1, 3] [µM] | IC50 [2, 4] [µM] | IC50 [2, 5] [µM] | further results |
| --- | --- | --- | --- | --- |
| CC#Cc1cncc(-c2ccc3c(c2)[C@@]2(COC(N)=N2)c2cc(OC)cc(F)c2O3)c1 [Example 824, (4S)-4′-fluoro-2′-methoxy-7′-(5-(1-propyn-1-yl)-3-pyridinyl)spiro[1,3-oxazole-4,9′-xanthen]-2-amine] | 0.0002 | 0.02 |  |  |
| COc1ncc(-c2ccc3c(c2)[C@@]2(COC(N)=N2)c2cc(N4CCC(F)(F)C4)ncc2O3)cn1 [Example 415, (5S)-3-(3,3-difluoro-1-pyrrolidinyl)-7-(2-methoxy-5-pyrimidinyl)spiro[chromeno[2,3-c]pyridine-5,4′-[1,3]oxazol]-2′-amine] | 0.0817 |  | 0.367 |  |
| CC1(C#Cc2cc3c(cc2OC(F)(F)F)Oc2ccc(-c4cccnc4F)cc2[C@]32COC(N)=N2)COC1 [Example 987, (4R)-7′-(2-fluoro-3-pyridinyl)-2′-((3-methyl-3-oxetanyl)ethynyl)-3′-(trifluoromethoxy)spiro[1,3-oxazole-4,9′-xanthen]-2-amine] | 4.63 | ≥ 10 |  |  |
| NC1=N[C@@]2(CO1)c1cc(-c3cccnc3F)ccc1Oc1c2cc(C2=CCOCC2)c(F)c1F [Example 1011, (4S)-2′-(3,6-dihydro-2H-pyran-4-yl)-3′,4′-difluoro-7′-(2-fluoro-3-pyridinyl)spiro[1,3-oxazole-4,9′-xanthen]-2-amine] | 0.0005 | 0.017 |  |  |
| CC1(C#Cc2cnc3c(c2)[C@]2(COC(N)=N2)c2c(ccc(-c4ccc(F)nc4)c2F)O3)COC1 [Example 342, (5R)-6-fluoro-7-(6-fluoro-3-pyridinyl)-3-((3-methyl-3-oxetanyl)ethynyl)spiro[chromeno[2,3-b]pyridine-5,4′-[1,3]oxazol]-2′-amine] | 0.0024 | 0.016 |  |  |
| CC#Cc1cnc(F)c(-c2ccc3c(c2)[C@@]2(COC(N)=N2)c2cc(-c4ccnc(F)c4)cnc2O3)c1 [Example 956, (5S)-7-(2-fluoro-5-(1-propyn-1-yl)-3-pyridinyl)-3-(2-fluoro-4-pyridinyl)spiro[chromeno[2,3-b]pyridine-5,4′-[1,3]oxazol]-2′-amine] | 0.0004 |  | 0.006 |  |
| CC1(C)C=C(c2cc3c(cn2)Oc2ccc(-c4cncnc4)cc2[C@@]32COC(N)=N2)CCO1 [Example 543, (5S)-3-(6,6-dimethyl-3,6-dihydro-2H-pyran-4-yl)-7-(5-pyrimidinyl)spiro[chromeno[2,3-c]pyridine-5,4′-[1,3]oxazol]-2′-amine] | 0.0016 |  |  | IC50 ([2]; average IC50, HEK cells, read-out: HEK cell assay): 0.0246 µM |
| Cc1ccc(-c2cnc3c(c2)[C@]2(CSC(N)=N2)c2cc(C#CC4(C)COC4)ccc2O3)cn1 [Example 940, (5S)-7-((3-methyl-3-oxetanyl)ethynyl)-3-(6-methyl-3-pyridinyl)spiro[chromeno[2,3-b]pyridine-5,4′-[1,3]thiazol]-2′-amine] | 0.0054 |  | 0.06 |  |
| NC1=N[C@@]2(CS1)c1cc(-c3cccnc3F)ccc1Oc1cnc(C3CCOCC3)cc12 [Example 930, (5S)-7-(2-fluoro-3-pyridinyl)-3-(tetrahydro-2H-pyran-4-yl)spiro[chromeno[2,3-c]pyridine-5,4′-[1,3]thiazol]-2′-amine] | 0.004 |  | 0.057 |  |
| N#Cc1cncc(-c2ccc3c(c2)[C@@]2(COC(N)=N2)c2cc(OCC4CCOCC4)cc(F)c2O3)c1 [Example 553, 5-((4S)-2-amino-5′-fluoro-7′-(tetrahydro-2H-pyran-4-ylmethoxy)spiro[1,3-oxazole-4,9′-xanthen]-2′-yl)-3-pyridinecarbonitrile] | 0.0024 |  | 0.0132 |  |
| NC1=N[C@]2(CS1)c1cc(-c3cccnc3)c(F)cc1Oc1c(F)cc(C3=CCOCC3)cc12 [Example 882, (4R)-7′-(3,6-dihydro-2H-pyran-4-yl)-3′,5′-difluoro-2′-(3-pyridinyl)spiro[1,3-thiazole-4,9′-xanthen]-2-amine] | 0.617 |  | ≥ 10 |  |
| COc1nc(Cl)cc2c1Oc1ccc(-c3cccnc3)cc1[C@@]21COC(N)=N1 [Example 830, (5S)-3-chloro-1-methoxy-7-(3-pyridinyl)spiro[chromeno[2,3-c]pyridine-5,4′-[1,3]oxazol]-2′-amine] | 0.469 | ≥ 10 |  |  |
| CC(C)(C)C#Cc1cnc2c(c1)[C@@]1(COC(N)=N1)c1cc(-c3cncnc3)c(F)cc1O2 [Example 338, (5R)-3-(3,3-dimethyl-1-butyn-1-yl)-8-fluoro-7-(5-pyrimidinyl)spiro[chromeno[2,3-b]pyridine-5,4′-[1,3]oxazol]-2′-amine] | 0.213 | 1.24 |  |  |
| NC1=N[C@@]2(CO1)c1cc(-c3cncc(Cl)c3)ccc1Oc1c(F)cc(C3=CCOCC3)cc12 [Example 210, (4S)-7′-(5-chloro-3-pyridinyl)-2′-(3,6-dihydro-2H-pyran-4-yl)-4′-fluorospiro[1,3-oxazole-4,9′-xanthen]-2-amine] |  |  |  | IC50 ([1]; BACE 1 FRET assay (uM)): 0.0003 µM; IC50 ([2]; Homo sapiens, HEK293, read-out: HEK cell assay (uM), average IC50, HEK cell assay): 0.003 µM |
| NC1=N[C@]2(CO1)c1cc(-c3cccnc3F)ccc1Oc1cc(OC(F)(F)F)c(-c3ccnc(F)c3)cc12 [Example 990, (4R)-7′-(2-fluoro-3-pyridinyl)-2′-(2-fluoro-4-pyridinyl)-3′-(trifluoromethoxy)spiro[1,3-oxazole-4,9′-xanthen]-2-amine] | 8.22 | 7.22 |  |  |
| COc1nc(Cl)cc2c1Oc1ccc(-c3cccnc3F)cc1[C@@]21COC(N)=N1 [Example 828, (5S)-3-chloro-7-(2-fluoro-3-pyridinyl)-1-methoxyspiro[chromeno[2,3-c]pyridine-5,4′-[1,3]oxazol]-2′-amine] | 0.134 | ≥ 10 |  |  |
| NC1=N[C@@]2(CO1)c1cc(-c3cccnc3F)ccc1Oc1c(F)cc(-c3cncnc3)cc12 [Example 214, (4S)-4′-fluoro-7′-(2-fluoro-3-pyridinyl)-2′-(5-pyrimidinyl)spiro[1,3-oxazole-4,9′-xanthen]-2-amine] | 0.0028 | 0.0187 |  |  |
| Cc1cc(-c2ccc3c(c2)[C@@]2(COC(N)=N2)c2cc(-c4ccncc4)ncc2O3)cnc1F [Example 229, (5S)-7-(6-fluoro-5-methyl-3-pyridinyl)-3-(4-pyridinyl)spiro[chromeno[2,3-c]pyridine-5,4′-[1,3]oxazol]-2′-amine] | 0.0128 | 0.0604 |  |  |
| N#Cc1cc(-c2ccc3c(c2)[C@@]2(CSC(N)=N2)c2cc(C4=CCCOC4)cnc2O3)ccc1F [Example 783, 5-((5S)-2′-amino-3-(5,6-dihydro-2H-pyran-3-yl)spiro[chromeno[2,3-b]pyridine-5,4′-[1,3]thiazol]-7-yl)-2-fluorobenzonitrile] | 0.0006 | 0.01 |  |  |
| NC1=N[C@@]2(CO1)c1cc(-c3cccnc3F)ccc1Oc1c(F)cc(N3CC4(CCCOC4)C3)cc12 [Example 856, (4S)-4′-fluoro-7′-(2-fluoro-3-pyridinyl)-2′-(6-oxa-2-azaspiro[3.5]non-2-yl)spiro[1,3-oxazole-4,9′-xanthen]-2-amine] | 0.0006 |  | 0.004 |  |
| CC#Cc1cncc(-c2ccc3c(c2)[C@@]2(COC(N)=N2)c2cc(C4=CCCOC4)cnc2O3)c1 [Example 950, (5S)-3-(5,6-dihydro-2H-pyran-3-yl)-7-(5-(1-propyn-1-yl)-3-pyridinyl)spiro[chromeno[2,3-b]pyridine-5,4′-[1,3]oxazol]-2′-amine] | 0.0003 |  | 0.002 |  |
| NC1=N[C@]2(CO1)c1cc(C3=CCOCC3)cc(F)c1Oc1ccc(-c3cncnc3)c(F)c12 [Example 1042, (4R)-7′-(3,6-dihydro-2H-pyran-4-yl)-1′,5′-difluoro-2′-(5-pyrimidinyl)spiro[1,3-oxazole-4,9′-xanthen]-2-amine] | 0.0135 | 0.117 |  |  |
| NC1=N[C@@]2(CO1)c1cc(-c3cnccn3)ccc1Oc1c(F)cc(N3C[C@@H]4C[C@H]3CO4)cc12 [Example 268, (4S)-4′-fluoro-2′-((1S,4S)-2-oxa-5-azabicyclo[2.2.1]hept-5-yl)-7′-(2-pyrazinyl)spiro[1,3-oxazole-4,9′-xanthen]-2-amine] | 0.0105 | 0.0261 |  |  |
| NC1=N[C@@]2(CO1)c1cc(C3=CCOCC3)cc(F)c1Oc1ccc(-c3cncnc3)c(F)c12 [Example 1041, (4S)-7′-(3,6-dihydro-2H-pyran-4-yl)-1′,5′-difluoro-2′-(5-pyrimidinyl)spiro[1,3-oxazole-4,9′-xanthen]-2-amine] | 3.59 | ≥ 10 |  |  |
| CC1(C#Cc2cc3c(nc2F)Oc2ccc(-c4cncc(F)c4)cc2[C@@]32COC(N)=N2)COC1 [Example 907, (5S)-2-fluoro-7-(5-fluoro-3-pyridinyl)-3-((3-methyl-3-oxetanyl)ethynyl)spiro[chromeno[2,3-b]pyridine-5,4′-[1,3]oxazol]-2′-amine] | 0.0011 |  | 0.023 |  |
| NC1=N[C@@]2(CS1)c1cc(-c3cccnc3F)ccc1Oc1c2cc(C2=CCCCO2)nc1F [Example 1026, (5S)-3-(3,4-dihydro-2H-pyran-6-yl)-1-fluoro-7-(2-fluoro-3-pyridinyl)spiro[chromeno[2,3-c]pyridine-5,4′-[1,3]thiazol]-2′-amine] | 0.0002 | 0.011 |  |  |
| COc1ncc(-c2cc3c(cn2)Oc2ccc(-c4cccnc4F)cc2[C@@]32COC(N)=N2)cc1F [Example 570, (5S)-3-(5-fluoro-6-methoxy-3-pyridinyl)-7-(2-fluoro-3-pyridinyl)spiro[chromeno[2,3-c]pyridine-5,4′-[1,3]oxazol]-2′-amine] | 0.002 |  | 0.031 |  |
| Cc1cc(-c2cc3c(cn2)Oc2ccc(-c4cccnc4F)cc2[C@@]32COC(N)=N2)on1 [Example 364, (5S)-7-(2-fluoro-3-pyridinyl)-3-(3-methyl-5-isoxazolyl)spiro[chromeno[2,3-c]pyridine-5,4′-[1,3]oxazol]-2′-amine] | 0.0069 | 0.0625 |  |  |
